Measurements reported in ChEMBL document CHEMBL5050834, “Cyclic trex1 inhibitors” (2021).
Activity calls are given as the source filed them. No cut-off for these calls is given here.

Tested on: MB49
Assay: Antitumor activity against mouse MB49 cells xenografted in female C57BL/6 mouse assessed as reduction in tumor volume at 100 ug, IT(Intratumoral) followed by 10 Gy gamma irradiation
Assay type: functional, cell-based
Conditions: dose 100.0 µg

Row | Compound | Activity
1 | N[C@@H]1C[C@H]2C(=O)N([C@H](CCC(=O)O)C(=O)NCc3ccc(Cl)c(Cl)c3)CCC(CCc3ccccc3)N2C1 (stereo not given in full) | Active

Tested on: not listed separately
Assay: Inhibition of TREX1 in human THP1-Dual cells assessed as activation of cGAS-STING pathway measured by ISRE luciferase reporter gene assay
Assay type: cell-based
Conditions: not given

Row | EC50 [nM] | Compound
2 | 1000 | N[C@@H]1C[C@H]2C(=O)N([C@H](CCc3nnn[nH]3)C(=O)NCc3ccc(Cl)c(Cl)c3F)CCC(CCc3ccccc3)N2C1 (stereo not given in full)
3 | 1000 | N[C@@H]1C[C@H]2C(=O)N([C@H](CCC(=O)O)C(=O)NCc3ccc(Cl)c(Cl)c3F)CCC(CCc3ccccc3)N2C1 (stereo not given in full)

Tested on: not listed separately
Assay: Inhibition of human TREX1 exonuclease activity using labeled DNA oligonucleotide as substrate incubated for 30 mins and measured after 45 mins by fluorescence assay
Conditions: not given

Row | Compound | IC50
4 | N[C@@H]1C[C@H]2C(=O)N([C@H](CCc3nnn[nH]3)C(=O)NCc3ccc(Cl)c(Cl)c3F)CCC(CCc3ccccc3)N2C1 (stereo not given in full) | < 1000 nM
5 | CCOC(=O)CC[C@H](C(=O)N1CCC[C@H]1c1ccc(Cl)c(Cl)c1)N1CCC(CCc2ccccc2)N2C[C@H](N)C[C@H]2C1=O (mixture of isomers) | < 1000 nM
6 | COC(=O)CC[C@H](C(=O)NCc1ccc(Cl)c(Cl)c1)N1CCC(COc2ccc(F)cc2)N2C[C@H](N)C[C@H]2C1=O (mixture of isomers) | < 1000 nM
7 | N[C@@H]1C[C@H]2C(=O)N([C@@H]3CCCN(C(=O)c4ccc(Cl)c(Cl)c4)C3)CCC(CCc3ccccc3)N2C1 (stereo not given in full) | in the range around 10000 nM
8 | N#CC[C@H](C(=O)NCc1ccc(Cl)c(Cl)n1)N1CCC(CCc2ccccc2)N2C[C@H](N)C[C@H]2C1=O (stereo not given in full) | < 1000 nM
9 | N[C@@H]1C[C@H]2C(=O)N([C@H](CCNS(=O)(=O)C3CC3)C(=O)NCc3ccc(Cl)c(Cl)c3)CCC(CCc3ccccc3)N2C1 (stereo not given in full) | < 1000 nM
10 | CCOC(=O)CC[C@H](C(=O)NCc1ccc(Cl)c(Cl)c1OC)N1CCC(CCc2ccccc2)N2C[C@H](N)C[C@H]2C1=O (stereo not given in full) | < 1000 nM
11 | NC(=O)CC[C@H](C(=O)N1Cc2cc(Cl)c(Cl)cc2C1)N1CCC(CCc2ccccc2)N2C[C@H](N)C[C@H]2C1=O (stereo not given in full) | in the range around 10000 nM
12 | N[C@@H]1C[C@H]2C(=O)N([C@H](CCC(=O)O)C(=O)NCc3ccc(Cl)c(Cl)c3)CCC(COc3cnccn3)N2C1 (stereo not given in full) | in the range around 1000 nM
13 | N[C@@H]1C[C@H]2C(=O)N([C@H](CCC(=O)O)C(=O)NCc3ccc(Cl)c(C(F)(F)F)c3)CCC(CCc3ccccc3)N2C1 (stereo not given in full) | < 1000 nM
14 | COC(=O)CC[C@H](C(=O)NS(=O)(=O)c1ccc(Cl)c(Cl)c1)N1CCC(CCc2ccccc2)N2C[C@H](N)C[C@H]2C1=O (stereo not given in full) | < 1000 nM
15 | N[C@@H]1C[C@H]2C(=O)N([C@H]3CCCN(C(=O)c4ccc(Cl)c(Cl)c4)C3)CCC(CCc3ccccc3)N2C1 (mixture of isomers) | in the range around 10000 nM
16 | CC(C)Oc1c(CNC(=O)[C@@H](CCc2nnn[nH]2)N2CCC(CCc3ccccc3)N3C[C@H](N)C[C@H]3C2=O)ccc(Cl)c1Cl (stereo not given in full) | < 1000 nM
17 | CC(C)C[C@H](C(=O)NCc1ccc(Cl)c(F)c1)N1CCC(CCc2ccccc2)N2C[C@H](N)C[C@H]2C1=O (stereo not given in full) | < 1000 nM
18 | N[C@@H]1C[C@H]2C(=O)N([C@H](CCC(=O)O)C(=O)NCc3ccc(Cl)c(Cl)c3)CCC(COc3cccc(Cl)c3)N2C1 (stereo not given in full) | < 1000 nM
19 | CC(C)C[C@H](C(=O)NCc1ccc(Cl)c(C(F)(F)F)c1)N1CCC(CCc2ccccc2)N2C[C@H](N)C[C@H]2C1=O (stereo not given in full) | < 1000 nM
20 | COc1ccc(CNC(=O)[C@@H](CC(C)C)N2CCC(CCc3ccccc3)N3C[C@H](N)C[C@H]3C2=O)cc1Cl (stereo not given in full) | < 1000 nM
21 | CC(C)Oc1c(CNC(=O)[C@@H](CCC#N)N2CCC(CCc3ccccc3)N3C[C@H](N)C[C@H]3C2=O)ccc(Cl)c1Cl (stereo not given in full) | < 1000 nM
22 | N[C@@H]1C[C@H]2C(=O)N([C@@H]3CCCN(Cc4ccc(Cl)c(Cl)c4)C3=O)CCC(CCc3ccccc3)N2C1 (stereo not given in full) | < 1000 nM
23 | COc1c(CNC(=O)[C@@H](CCC#N)N2CCC(CCc3ccccc3)N3C[C@H](N)C[C@H]3C2=O)ccc(Cl)c1Cl (stereo not given in full) | < 1000 nM
24 | N[C@@H]1C[C@H]2C(=O)N([C@H](CCC(=O)O)C(=O)NCc3cc(Cl)c(Cl)cn3)CCC(CCc3ccccc3)N2C1 (stereo not given in full) | < 1000 nM
25 | COc1c(CNC(=O)[C@@H](CCC(=O)O)N2CCC(CCc3ccccc3)N3C[C@H](N)C[C@H]3C2=O)ccc(Cl)c1Cl (stereo not given in full) | < 1000 nM
26 | CC(C)Oc1c(CNC(=O)[C@@H](CCC(=O)O)N2CCC(CCc3ccccc3)N3C[C@H](N)C[C@H]3C2=O)ccc(Cl)c1Cl (stereo not given in full) | < 1000 nM
27 | CN(Cc1ccc(Cl)c(Cl)c1)C(=O)[C@@H](CC#N)N1CCC(CCc2ccccc2)N2C[C@H](N)C[C@H]2C1=O (stereo not given in full) | < 1000 nM
28 | N[C@@H]1C[C@H]2C(=O)N([C@H](CCNC(=O)C3CC3)C(=O)NCc3ccc(Cl)c(Cl)c3)CCC(CCc3ccccc3)N2C1 (stereo not given in full) | < 1000 nM

Continued, values first:

Row | IC50 | Compound
29 | in the range around 10000 nM | N#CC[C@H](C(=O)N1CCOC[C@@H]1c1ccccc1)N1CCC(CCc2ccccc2)N2C[C@H](N)C[C@H]2C1=O (stereo not given in full)
30 | < 1000 nM | N[C@@H]1C[C@H]2C(=O)N(c3cccn(Cc4ccc(Cl)c(Cl)c4)c3=O)CCC(CCc3ccccc3)N2C1 (stereo not given in full)
31 | in the range around 1000 nM | CC(C)C[C@H](C(=O)NCc1ccc(Cl)c(Cl)c1)N1CCC(CS(=O)(=O)c2ccccc2)N2C[C@H](N)C[C@H]2C1=O (stereo not given in full)
32 | < 1000 nM | CNC(=O)CC[C@H](C(=O)NCc1ccc(Cl)c(Cl)c1)N1CCC(CCc2ccccc2)N2C[C@H](N)C[C@H]2C1=O (stereo not given in full)
33 | < 1000 nM | N#CCC[C@H](C(=O)NCc1ccc(Cl)c(Cl)c1)N1CCC(COc2ccc(F)cc2)N2C[C@H](N)C[C@H]2C1=O (stereo not given in full)
34 | < 1000 nM | CCOC(=O)CC[C@H](C(=O)NCc1cc(Cl)c(Cl)cc1F)N1CCC(CCc2ccccc2)N2C[C@H](N)C[C@H]2C1=O (stereo not given in full)
35 | < 1000 nM | N[C@@H]1C[C@H]2C(=O)N([C@H](CCC(=O)O)C(=O)NCc3ccc(Cl)c(Cl)c3F)CCC(CCc3ccccc3)N2C1 (stereo not given in full)
36 | < 1000 nM | CC(C)C[C@H](CNS(=O)(=O)c1ccc(Cl)c(Cl)c1)N1CCC(CCc2ccccc2)N2C[C@H](N)C[C@H]2C1=O (stereo not given in full)
37 | in the range around 1000 nM | N[C@@H]1C[C@H]2C(=O)N([C@H]3CCCN(S(=O)(=O)c4ccc(Cl)c(Cl)c4)C3)CCC(CCc3ccccc3)N2C1 (stereo not given in full)
38 | in the range around 1000 nM | N#CC[C@H](C(=O)N1CCc2c(ccc(Cl)c2Cl)C1)N1CCC(CCc2ccccc2)N2C[C@H](N)C[C@H]2C1=O (stereo not given in full)
39 | < 1000 nM | N[C@@H]1C[C@H]2C(=O)N([C@H](CCC(=O)O)C(=O)N3CCCC[C@H]3c3ccc(Cl)c(Cl)c3)CCC(CCc3ccccc3)N2C1 (stereo not given in full)
40 | < 1000 nM | NC(=O)C[C@H](C(=O)NCc1ccc(Cl)c(Cl)n1)N1CCC(CCc2ccccc2)N2C[C@H](N)C[C@H]2C1=O (stereo not given in full)
